Source: US20250163057A1, “DCN-1 MODULATING COMPOUNDS AND METHODS OF USE THEREOF” (Cellarity, Inc., priority 2023, published 2025)
pIC50: −log10 of the molar value. Like-named read-outs stand apart in the source and are kept apart here.

Assays:
[1] = target: DCN1 protein (Homo sapiens (Human), UniProt Q96GG9); test: Intact Protein MS Analysis with the RapidFire-TOF System (covalent adduct formation); assay type: binding; conditions: MS Emax; 400 nM DCN1, 3 hours at room temperature
Summary of the method: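 Tag-cleaved human DCN1 (400 nM) expressed in E. coli, in 25 mM Tris-HCl, 200 mM NaCl, 1 mM DTT, was incubated with 11 compound concentrations for 3 h at room temperature and quenched with 0.2% formic acid. Intact-protein Q-TOF MS with deconvolution detected the compound adduct mass.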

[2] = tested on: Cullin-3 (CUL3) neddylation; test: AlphaLISA assay for Cullin-3 (CUL3) neddylation in TF 1 cells; assay type: cell-based; conditions: Homo sapiens, TF-1, 3 h, 3 hours treatment
Summary of the method: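 TF 1 cells in unsupplemented IMDM treated with compound concentrations for 3 h, then lysed. CUL3 neddylation detected by AlphaLISA (biotinylated anti-NEDD8, anti-CUL3 acceptor beads overnight, streptavidin donor beads 1 h); normalized to vehicle (0%) and 1 μM DI-1548 (100%), IC50 from Hill fits.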

[3] = target: DCN1 (DCUND1) protein PONY domain (Homo sapiens (Human), UniProt Q96GG9); test: TR-FRET assay, DCN1 binding with FAM-labeled probe; conditions: for IC50: TR FRET IC50 1 hr (nM)
Summary of the method: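 Binding was read as the TR-FRET ratio between a FAM-tagged inhibitor probe and Tb-labeled biotinylated E. coli-expressed DCN1 PONY domain, measured 1, 5 and 24 h after compound addition. The two setups used 5 nM protein/20 nM FAM-probe or 0.31 nM protein/900 nM total probe (100 nM labeled), in TritonX buffer with 200 mM NaCl.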

[4] = 24 hr after treatment with compound, read-out: TR FRET IC50 24 hr
[5] = read-out: TR FRET IC50 1 hr, 1 hr after treatment with compound
[6] = 1 hr after treatment with compound

DCN1 (DCUND1) protein PONY domain, sequence (Q96GG9 60-248): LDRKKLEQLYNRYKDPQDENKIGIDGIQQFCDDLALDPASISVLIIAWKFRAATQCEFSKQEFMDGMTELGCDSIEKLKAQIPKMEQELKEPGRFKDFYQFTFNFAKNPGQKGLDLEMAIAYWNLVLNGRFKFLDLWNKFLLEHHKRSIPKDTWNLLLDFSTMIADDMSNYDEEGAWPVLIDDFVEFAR
DCN1 protein, sequence (Q96GG9 whole entry): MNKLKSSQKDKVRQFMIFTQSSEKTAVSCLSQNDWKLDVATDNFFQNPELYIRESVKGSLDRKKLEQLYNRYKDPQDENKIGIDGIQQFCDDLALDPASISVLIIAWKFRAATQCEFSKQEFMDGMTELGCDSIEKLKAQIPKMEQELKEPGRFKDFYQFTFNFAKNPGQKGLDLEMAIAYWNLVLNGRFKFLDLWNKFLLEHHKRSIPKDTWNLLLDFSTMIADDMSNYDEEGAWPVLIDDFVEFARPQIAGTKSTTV

| Compound | % Adduct Formation [1] | pIC50 [2] | pIC50 [3, 4] | pIC50 [3, 5] | IC50 [3, 6] [nM] |
| --- | --- | --- | --- | --- | --- |
| CCN1C(=O)[C@@H](NC(=O)c2cccc(C(F)(F)F)c2)[C@@H](c2ccc(F)cc2)c2c(C(=O)N3CCC[C@H]3C#N)nn(-c3cccc(OCCCN4CCN(C5COC5)CC4)c3)c21 [Compound I-337] | +++ (MS Emax % adduct formation greater than 80.0 and less than or equal to 100.0) | ≥ 7.00 | ≥ 6.70 | ≥ 6.70 |  |
| CCN1C(=O)[C@@H](NC(=O)c2cccc(C(F)(F)F)c2)[C@@H](c2ccc(F)cc2)c2c(C(=O)N3CCC[C@H]3C#N)nn(-c3cccc(OCCCN4CCOCC4)c3)c21 [Compound I-338] | +++ (MS Emax % adduct formation greater than 80.0 and less than or equal to 100.0) | ≥ 7.00 | ≥ 6.70 |  | 1000 to 3000 |
| CCN1C(=O)[C@@H](NC(=O)c2cccc(C(F)(F)F)c2)[C@@H](c2ccc(F)cc2)c2c(C(=O)N3CCC[C@H]3C#N)nn(-c3cccc(OCCN4CCOCC4)c3)c21 [Compound I-339] | +++ (MS Emax % adduct formation greater than 80.0 and less than or equal to 100.0) | ≥ 7.00 | ≥ 6.70 |  | 1000 to 3000 |
| CCN1C(=O)[C@@H](NC(=O)c2cccc(C(F)(F)F)c2)[C@@H](c2ccc(F)cc2)c2c(C(=O)N3CCC[C@H]3C#N)nn(-c3cccc(OCCN4CCN(C5COC5)CC4)c3)c21 [Compound I-340] | +++ (MS Emax % adduct formation greater than 80.0 and less than or equal to 100.0) | ≥ 7.00 | ≥ 6.70 | ≥ 6.70 |  |
| CCN1C(=O)[C@@H](NC(=O)c2cccc(C(F)(F)F)c2)[C@@H](c2ccc(F)cc2)c2c(C(=O)N3CCC[C@H]3C#N)nn(-c3cccc(OCCN4CCC5(CC4)COC5)c3)c21 [Compound I-341] | +++ (MS Emax % adduct formation greater than 80.0 and less than or equal to 100.0) | ≥ 7.00 | ≥ 6.70 | ≥ 6.70 |  |
| CCN1C(=O)[C@@H](NC(=O)c2cccc(C(F)(F)F)c2)[C@@H](c2ccc(F)cc2)c2c(C(=O)N3CCC[C@H]3C#N)nn(-c3cccc(OCCN4CC5(COC5)C4)c3)c21 [Compound I-342] | +++ (MS Emax % adduct formation greater than 80.0 and less than or equal to 100.0) | ≥ 7.00 | ≥ 6.70 | ≥ 6.70 |  |
| CCN1C(=O)[C@@H](NC(=O)c2ccn(C(F)(F)F)n2)[C@@H](c2ccc(F)cc2)c2c(C(=O)N3CCC[C@H]3C#N)nn(-c3ccccc3)c21 [Compound I-343, N-((4S,5S)-3-((S)-2-cyanopyrrolidine-1-carbonyl)-7-ethyl-4-(4-fluorophenyl)-6-oxo-1-phenyl-4,5,6,7-tetrahydro-1H-pyrazolo[3,4-b]pyridin-5-yl)-1-(trifluoromethyl)-1H-pyrazole-3-carboxamide] | ++ (MS Emax % adduct formation greater than 30.0 and less than or equal to 80.0) | ≥ 7.00 | ≥ 6.70 |  | 1000 to 3000 |
| CCN1C(=O)[C@@H](NC(=O)c2ccn(C(F)(F)F)n2)[C@@H](c2ccc(F)cc2)c2c(C(=O)N3[C@H](C#N)C[C@H]4C[C@H]43)nn(-c3ccccc3)c21 [Compound I-344] | ++ (MS Emax % adduct formation greater than 30.0 and less than or equal to 80.0) | ≥ 7.00 | ≥ 6.70 |  | 200 to 1000 |
| CCN1C(=O)[C@@H](NC(=O)c2ccn(C(F)(F)F)n2)[C@@H](c2ccc(F)cc2)c2c(C(=O)N3CCOC[C@H]3C#N)nn(-c3ccccc3)c21 [Compound I-345] | +++ (MS Emax % adduct formation greater than 80.0 and less than or equal to 100.0) | ≥ 7.00 | ≥ 6.70 |  | 200 to 1000 |
| CCN1C(=O)[C@@H](NC(=O)c2ccn(C(F)(F)F)n2)[C@@H](c2ccc(F)cc2)c2c(C(=O)N3CCNC[C@H]3C#N)nn(-c3ccccc3)c21 [Compound I-346, N-((4S,5S)-3-((S)-2-cyanopiperazine-1-carbonyl)-7-ethyl-4-(4-fluorophenyl)-6-oxo-1-phenyl-4,5,6,7-tetrahydro-1H-pyrazolo[3,4-b]pyridin-5-yl)-1-(trifluoromethyl)-1H-pyrazole-3-carboxamide] | +++ (MS Emax % adduct formation greater than 80.0 and less than or equal to 100.0) | ≥ 7.00 | ≥ 6.70 |  | 200 to 1000 |
| CCN1C(=O)[C@@H](NC(=O)c2cccc(C(F)(F)F)c2)[C@@H](c2ccc(F)cc2)c2c(C(=O)N3CCC[C@H]3C#N)nn(-c3cccc(OCCN(C)C4COC4)c3)c21 [Compound I-347] | +++ (MS Emax % adduct formation greater than 80.0 and less than or equal to 100.0) | ≥ 7.00 | ≥ 6.70 |  | 200 to 1000 |
| CCN1C(=O)[C@@H](NC(=O)c2cccc(C(F)(F)F)c2)[C@@H](c2ccc(F)cc2)c2c(C(=O)N(CC#N)C3CC3)nn(C3CCOCC3)c21 [Compound I-351] | +++ (MS Emax % adduct formation greater than 80.0 and less than or equal to 100.0) | ≥ 7.00 | ≥ 6.70 | ≥ 6.70 |  |
| CCN1C(=O)[C@@H](NC(=O)c2cccc(C(F)(F)F)c2)[C@@H](c2ccc(F)cc2)c2c(C(=O)N(CC#N)CCN(C)C)nn(C3CCOCC3)c21 [Compound I-352] | +++ (MS Emax % adduct formation greater than 80.0 and less than or equal to 100.0) | ≥ 7.00 | ≥ 6.70 | ≥ 6.70 |  |
| CCN1C(=O)[C@@H](NC(=O)c2cccc(C(F)(F)F)c2)[C@@H](c2ccc(F)cc2)c2c(C(=O)N(CC#N)CCCN(C)C)nn(C3CCOCC3)c21 [Compound I-353] | +++ (MS Emax % adduct formation greater than 80.0 and less than or equal to 100.0) | ≥ 7.00 | ≥ 6.70 | ≥ 6.70 |  |
| CCN1C(=O)[C@@H](NC(=O)c2cccc(C(F)(F)F)c2)[C@@H](c2ccc(F)cc2)c2c(C(=O)N3CCC[C@H]3C#N)nn(C3CC3)c21 [Compound I-354] | ++ (MS Emax % adduct formation greater than 30.0 and less than or equal to 80.0) | ≥ 7.00 | ≥ 6.70 | ≥ 6.70 |  |
| CCN1C(=O)[C@@H](NC(=O)c2cccc(C(F)(F)F)c2)[C@@H](c2ccc(F)cc2)c2c(C(=O)N(CC#N)C3CC3)nn(C3CC3)c21 [Compound I-355] | +++ (MS Emax % adduct formation greater than 80.0 and less than or equal to 100.0) | ≥ 7.00 | ≥ 6.70 | ≥ 6.70 |  |
| CCCn1nc(C(=O)N(CC#N)C2CC2)c2c1N(CC)C(=O)[C@@H](NC(=O)c1cccc(C(F)(F)F)c1)[C@H]2c1ccc(F)cc1 [Compound I-356] | +++ (MS Emax % adduct formation greater than 80.0 and less than or equal to 100.0) | ≥ 7.00 | ≥ 6.70 |  | 200 to 1000 |
| CCN1C(=O)[C@@H](NC(=O)c2cccc(C(F)(F)F)c2)[C@@H](c2ccc(F)cc2)c2c(C(=O)N3CCN(C4COC4)CC3C#N)nn(-c3ccccc3)c21 (stereo partly drawn) [Compound I-357] | ++ (MS Emax % adduct formation greater than 30.0 and less than or equal to 80.0) | ≥ 7.00 | ≥ 6.70 | ≥ 6.70 |  |
| CCN1C(=O)[C@@H](NC(=O)c2cccc(C(F)(F)F)c2)[C@@H](c2ccc(F)cc2)c2c(C(=O)N(CC#N)CC#N)nn(C3CCOCC3)c21 [Compound I-365] | +++ (MS Emax % adduct formation greater than 80.0 and less than or equal to 100.0) | ≥ 7.00 | ≥ 6.70 | ≥ 6.70 |  |
| CCN1C(=O)[C@@H](NC(=O)c2cccc(C(F)(F)F)c2)[C@@H](c2ccc(F)cc2)c2c(C(=O)N(C)CC#N)nn(C3CCOCC3)c21 [Compound I-366] | +++ (MS Emax % adduct formation greater than 80.0 and less than or equal to 100.0) | ≥ 7.00 | ≥ 6.70 | ≥ 6.70 |  |
| CCN1C(=O)[C@@H](NC(=O)c2cccc(C(F)(F)F)c2)[C@@H](c2ccc(F)cc2)c2c(C(=O)N(C)[C@H](C)C#N)nn(C3CCOCC3)c21 [Compound I-367] | +++ (MS Emax % adduct formation greater than 80.0 and less than or equal to 100.0) | ≥ 7.00 | ≥ 6.70 | ≥ 6.70 |  |
| CCN1C(=O)[C@@H](NC(=O)c2cccc(C(F)(F)F)c2)[C@@H](c2ccc(F)cc2)c2c(C(=O)N(C)[C@@H](C)C#N)nn(C3CCOCC3)c21 [Compound I-368] | +++ (MS Emax % adduct formation greater than 80.0 and less than or equal to 100.0) | ≥ 7.00 | ≥ 6.70 | ≥ 6.70 |  |
| CCN1C(=O)[C@@H](NC(=O)c2cccc(C(F)(F)F)c2)[C@@H](C2CC2)c2c(C(=O)N(CC#N)CC#N)nn(C3CCOCC3)c21 [Compound I-373] | ++ (MS Emax % adduct formation greater than 30.0 and less than or equal to 80.0) | ≥ 7.00 | ≥ 6.70 | ≥ 6.70 |  |
| CCN1C(=O)[C@@H](NC(=O)c2cccc(C(F)(F)F)c2)[C@@H](C2CCC2)c2c(C(=O)N(C)C(C)C#N)nn(C3CCOCC3)c21 (stereo partly drawn) [Compound I-375] | +++ (MS Emax % adduct formation greater than 80.0 and less than or equal to 100.0) | ≥ 7.00 | ≥ 6.70 | ≥ 6.70 |  |
